Consider four compounds from patent US4704393A, “1-substituted 5-fluorouracil useful for inhibiting the aggregation of platelets” (Terumo Kabushiki Kaisha, priority 1983, dated 1987).

Where two headings read alike, the source gives them in different places.

For one data set, the system named is P388 cells. Kind of data set: Chemotherapeutic function: life elongation ratio (ILS %) of mice intra-abdominally transplanted with P388 cells. To be noted: for toxicity compared with 5-FU in P388-bearing mice: 50 mg/kg/day (Example 1 compound), 70 mg/kg/day (Examples 2 and 3 compounds); for chemotherapeutic function compared with 5-FU: P388 mice, Tables 1 and 2; for ILS (%) / Incremental Life Support ILS (%): intra-abdominal, once daily; for Incremental Life Support ILS (%): five consecutive days. An excerpt:
To CDFl mice (males five weeks old), 1×10^6 P388 cells/mouse were intra-abdominally transplanted.
By following the procedure described above, each suspension of 0.5% of 1-(5,8,11,14,17-eicosapentaenoyloxy-meyhyl)-5-fluorouracil of Example 2 and 0.5% of 1-(4,7,10,13,16,19-docosahexenoyloxymethyl)-5-fluorouracil of Example 3 in carboxymethyl celloulose was intra-abdominally administered once daily to other mice of the same description to test for life elongation ratio.

Data set [1] concerns platelet aggregation induced by the arachidonic acid. Kind of data set: Platelet aggregation inhibition in rabbit PRP, induced by arachidonic acid. It is filed as cell-based. To be noted: Oryctolagus cuniculus. An excerpt:
(§1) With a syringe containing an aqueous 3.8% sodium citrate solution (one volume), blood (nine volumes) was collected from a rabbit through the carotid artery. For this blood, blood plasma abounding with blood platelets (PRP: 500,000/μ1) was obtained by centrifugal separation. The compound of the present invention was used on the PRP, with arachidonic acid or collagen as a coagulation inducer, to test for […].
(§2) With a syringe containing an aqueous 3.8% sodium citrate solution (one volume), blood (nine volumes) was collected from a rabbit through the carotid artery. From this blood, blood plasma abounding with blood platelets (PRP: 400,000/μ) was obtained by centrifugal separation. The compound of the present invention was used on the PRP, with arachidonic acid or collagen as an aggregation inducer, to test for platelet aggregation inhibiting function.

For data set [2], the system named is platelet aggregation induced by collagen. Kind of data set: Platelet aggregation inhibition in rabbit PRP, induced by collagen. It counts as cell-based. Conditions: Oryctolagus cuniculus, collagen 25 μg/ml.
From the text: as §1, §2

A further data set can be described thus: in vivo. Conditions: mouse, ip. An excerpt: To ICR mice (male, seven weeks old), 1-(9,12,15-octadecatrienoyloxymethyl)-5-fluorouracil, 1-(5,8,11,14,17-eicosapentaenoyloxymethyl)-5-fluorouracil, and 1-(4,7,10,13,16,19-docosahexenoyloxymethyl)-5-fluorouracil were intra-abdominally administered to test for acute toxicity.
Setting [3] is: arachidonic acid 80 μM, rabbit PRP 400,000/μ, read-out: 50% depression concentration (IC50) on platelet aggregation.

Consider `CCC=CCC=CCC=CCC=CCC=CCC=CCCC(=O)OCn1cc(F)c(=O)[nH]c1=O` [1-(4,7,10,13,16,19-docosahexenoyloxymethyl)-5-fluorouracil], for which the “toxicity compared with 5-FU in P388-bearing mice” value (from here on “toxicity compared with 5-FU”) with P388 cells was “less toxic than 5-FU”. In addition, the “chemotherapeutic function compared with 5-FU” value in the data set with P388 cells is “equal to or better than the function of 5-FU”. The “ILS (%)” value with P388 cells (Table 2, 3 mg/kg/day) is recorded as 17%; with P388 cells (Table 2, 10 mg/kg/day) it was 34%; in the data set with P388 cells (Table 2, 30 mg/kg/day) it was 47%; with P388 cells (Table 2, 70 mg/kg/day) it was 30%; with P388 cells (Table 2, 100 mg/kg/day), 22%. The results for the IC50 in data set [1] (setting [3]) and in data set [2] (rabbit PRP 400,000/μ) were 54 µM and 90 µM, respectively. Also, the LD50 (as a rule, the dose expected to kill half of the subjects tested) in the data set “in vivo” was above 500 mg/kg.
`CCC=CCC=CCC=CCC=CCC=CCCCC(=O)OCn1cc(F)c(=O)[nH]c1=O` [1-(5,8,11,14,17-eicosapentaenoyloxymethyl)-5-flourouracil]: the “toxicity compared with 5-FU” value with P388 cells is “less toxic than 5-FU”. Further, the “chemotherapeutic function compared with 5-FU” value with P388 cells was “equal to or better than the function of 5-FU”. Besides, the “ILS (%)” value amounted to 18% in the data set with P388 cells (Table 2, 3 mg/kg/day); 27% in the data set with P388 cells (Table 2, 10 mg/kg/day); 40% in the data set with P388 cells (Table 2, 30 mg/kg/day); 36% in the data set on P388 cells (Table 2, 70 mg/kg/day); 19% with P388 cells (Table 2, 100 mg/kg/day). The IC50 in data set [1] (setting [3]) came out at 120 µM; in data set [2] (rabbit PRP 400,000/μ), 710 µM. The same compound showed an LD50 in the data set “in vivo” above 500 mg/kg.
As for `CC/C=C\C/C=C\C/C=C\CCCCCCCC(=O)OCn1cc(F)c(=O)[nH]c1=O` [1-(9,12,15-octadecatrienoyloxymethyl)-5-fluorouracil], the “toxicity compared with 5-FU” value in the data set with P388 cells is listed as “less toxic than 5-FU”. Moreover, in the data set on P388 cells, the “chemotherapeutic function compared with 5-FU” value is reported as “equal to or better than the function of 5-FU”. For the same compound, the “Incremental Life Support ILS (%)” value came to 23% with P388 cells (Table 1, 5 mg/kg/day); 52% in the data set on P388 cells (Table 1, 10 mg/kg/day); 71% in the data set with P388 cells (Table 1, 20 mg/kg/day); 64% with P388 cells (Table 1, 30 mg/kg/day); 47% with P388 cells (Table 1, 50 mg/kg/day); 7% in the data set with P388 cells (Table 1, 100 mg/kg/day). Also, the IC50 in data set [1] (arachidonic acid 70 μM, rabbit PRP 500,000/μl, read-out: 50% inhibition concentration (IC50) on platelet aggregation) was 640 µM; in data set [2] (rabbit PRP 500,000/μl) it was 34 µM. Also, the LD50 in “in vivo” was above 500 mg/kg.
Regarding `O=c1[nH]cc(F)c(=O)[nH]1` [Example 5-FU, 5-fluorouracil], the “days of survival compared with control group” value in the data set with P388 cells (30 mg/kg/day) is on record as “smaller numbers of days of survival on the mice treatd than the mice of the control group”. Also, the “Incremental Life Support ILS (%)” value was 35% with P388 cells (Table 1, 5 mg/kg/day); 47% with P388 cells (Table 1, 10 mg/kg/day); 62% in the data set on P388 cells (Table 1, 20 mg/kg/day); -17% with P388 cells (Table 1, 30 mg/kg/day). Further, the “ILS (%)” value was 20% in the data set with P388 cells (Table 2, 3 mg/kg/day); 38% in the data set on P388 cells (Table 2, 10 mg/kg/day); -8% in the data set with P388 cells (Table 2, 30 mg/kg/day). Also, the inhibition (in general, the percentage by which the read-out fell short of the control) at 1000 µM in data set [1] (arachidonic acid 70 μM, rabbit PRP 500,000/μl, at 1×10^-3 M) was found to be 4%. Further, the results for the IC50 in data set [1] (setting [3]), in data set [2] (rabbit PRP 400,000/μ) and in data set [2] (rabbit PRP 500,000/μl) were above 1000 µM, at least 1000 µM and 530 µM, respectively. The same compound yielded an LD50 in the data set “in vivo” (in vivo) of 235 mg/kg.
